The assay deals with IL-1β production in PMA-differentiated THP-1 cells. Nature of the assay: IL-1β production in PMA-differentiated THP-1 cells stimulated with gramicidin (hTHP-1 assay, 2% fetal bovine serum; Procedures 1-3). In kind it is cell-based, human. The settings on record: hTHP-1 assay containing 2% fetal bovine serum, gramicidin stimulation, IL-1β readout, read-out: hTHP-1 IC50. The method in brief: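 IL-1β released into supernatants was read by HTRF after 2 h gramicidin (5 μM) challenge. Before challenge, compounds (3-fold dilutions, top 100 μM, 0.37% DMSO) were given 1 h on THP-1 cells differentiated with PMA (20 ng/ml, 16-18 h) and held in 2% FBS medium.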

Consider 30 compounds from patent US20230051589A1, “COMPOUNDS AND COMPOSITIONS FOR TREATING CONDITIONS ASSOCIATED WITH NLRP ACTIVITY” (Novartis AG, priority 2018, published 2023).

Where two headings read alike, the source gives them in different places.

`NS(=O)(=NC(=O)Nc1c2c(cc3c1CCC3)CCC2)c1cnc(C(O)(COCCO)COCCO)s1` (stereo not drawn) [Example 751, N′-((1,2,3,5,6,7-hexahydro-s-indacen-4-yl)carbamoyl)-2-(2-hydroxy-1,3-bis(2-hydroxyethoxy)propan-2-yl)thiazole-5-sulfonimidamide]: the IC50 (in general, the concentration that gives 50% inhibition) (Homo sapiens, THP-1, Table B3) was in the range of 1000 to 5000 nM.

For `CN(C)C1CCc2cc(S(N)(=O)=NC(=O)Nc3c4c(cc5c3CCC5)CCC4)sc2C1` (stereo not drawn) [Example 752, 6-(Dimethylamino)-N′-((1,2,3,5,6,7-hexahydro-s-indacen-4-yl)carbamoyl)-4,5,6,7-tetrahydrobenzo[b]thiophene-2-sulfonimidamide], the concentration for half-maximal inhibition (IC50) (Homo sapiens, THP-1, Table B3) was 1000 to 5000 nM.

As to `CC(O)(CO)c1nc(CO)c(S(N)(=O)=NC(=O)Nc2c3c(cc4c2CCC4)CCC3)s1` (stereo not drawn) [Example 753, 2-(1,2-Dihydroxypropan-2-yl)-N′-((1,2,3,5,6,7-hexahydro-s-indacen-4-yl)carbamoyl)-4-(hydroxymethyl)thiazole-5-sulfonimidamide], the IC50 (Homo sapiens, THP-1, Table B3) is 40 to 200 nM.

As to `C[C@@](O)(CO)c1nc(CO)c(S(N)(=O)=NC(=O)Nc2c3c(cc4c2CCC4)CCC3)s1` (stereo partly drawn) [Example 754, 2-((R)-1,2-dihydroxypropan-2-yl)-N′-((1,2,3,5,6,7-hexahydro-s-indacen-4-yl)carbamoyl)-4-(hydroxymethyl)thiazole-5-sulfommidamide], the IC50 (Table B3) lay within 40 to 200 nM.

Consider `CC(CO)(CO)c1ncc(S(N)(=O)=NC(=O)Nc2c3c(cc4c2CCC4)CCC3)s1` (stereo not drawn) [Example 756, 2-(1,3-Dihydroxy-2-methylpropan-2-yl)-N′-((1,2,3,5,6,7-hexahydro-s-indacen-4-yl)carbamoyl)thiazole-5-sulfonimidamide], for which the IC50 (Homo sapiens, THP-1, Table B3) lay in the range of 40 to 200 nM.

For the compound `CC(O)(CO)c1nc(CO)c(S(N)(=O)=NC(=O)Nc2c3c(cc4c2CC4)CCC3)s1` (stereo not drawn) [Example 757, 2-(1,2-Dihydroxypropan-2-yl)-4-(hydroxymethyl)-N′-((2,4,5,6-tetrahydro-1H-cyclobuta[f]inden-3-yl)carbamoyl)thiazole-5-sulfonimidamide], where the note is “Homo sapiens, THP-1, Table B3”, the IC50 lay within 40 to 200 nM.

As for `NS(=O)(=NC(=O)Nc1c2c(cc3c1CCC3)CCC2)c1cc2c(s1)CCOC2` (stereo not drawn) [Example 758, N′-((1,2,3,5,6,7-hexahydro-s-indacen-4-yl)carbamoyl)-6,7-dihydro-4H-thieno[3,2-c]pyran-2-sulfonimidamide], the IC50 (Homo sapiens, THP-1, Table B3) is 200 to 1000 nM.

Turning to `NS(=O)(=NC(=O)Nc1c2c(cc3c1CCC3)CCC2)c1ccc(-c2ccccc2)s1` (stereo not drawn) [Example 759, N′-((1,2,3,5,6,7-hexahydro-s-indacen-4-yl)carbamoyl)-5-phenylthiophene-2-sulfonimidamide], the IC50 (Homo sapiens, THP-1, Table B3) lay in the range of 5000 to 30000 nM.

As to `CC(C)(O)c1sc(S(N)(=O)=NC(=O)Nc2c3c(cc4c2CCC4)CCC3)cc1-c1ccccc1` (stereo not drawn) [Example 760, N′-((1,2,3,5,6,7-hexahydro-s-indacen-4-yl)carbamoyl)-5-(2-hydroxypropan-2-yl)-4-phenylthiophene-2-sulfonimidamide], for the setting “Homo sapiens, THP-1, Table B3”, the IC50 is 200 to 1000 nM.

For `C[C@](O)(COCCOCCOCCOCCOCc1ccccc1)c1ncc(S(N)(=O)=NC(=O)Nc2c3c(cc4c2CCC4)CCC3)s1` (stereo partly drawn) [Example 761, N-((1,2,3,5,6,7-hexahvdro-s-indacen-4-yl)carbamoyl)-2-((S)-16-hydroxy-1-phenyl-2,5,8,11,14-pentaoxaheptadecan-16-yl)thiazole-5-sulfonimidamide], under “Homo sapiens, THP-1, Table B3”, the IC50 lay within 200 to 1000 nM.

Consider `CC(C)(O)c1cccc(S(N)(=O)=NC(=O)Nc2c3c(cc4c2CCC4)CCC3)n1` (stereo not drawn) [Example 763, N′-((1,2,3,5,6,7-hexahydro-s-indacen-4-yl)carbamoyl)-6-(2-hydroxypropan-2-yl)pyridine-2-sulfonimidamide], for which the IC50 (Homo sapiens, THP-1, Table B3) lay in the range of 1000 to 5000 nM.

Consider `CN(C)CC(C)(C)c1ccc(S(N)(=O)=NC(=O)Nc2c3c(cc4c2CCC4)CCC3)cc1` (stereo not drawn) [Example 764, 4-(1-(Dimethylamino)-2-methylpropan-2-yl)-N′-((1,2,3,5,6,7-hexahydro-s-indacen-4-yl)carbamoyl)benzenesulfonimidamide], for which, under “Homo sapiens, THP-1, Table B3”, the IC50 was in the range of 1000 to 5000 nM.

For the compound `CC(C)c1cnc(S(N)(=O)=NC(=O)Nc2c3c(cc4c2CCC4)CCC3)c(F)c1` (stereo not drawn) [Example 765, 3-Fluoro-N'-((1,2,3,5,6,7-hexahydro-s-indacen-4-yl)carbamoyl)-5-isopropylpyridine-2-sulfonimidamide], the IC50 (Homo sapiens, THP-1, Table B3) is 1000 to 5000 nM.

With `CN1CCCC(c2ccc(S(N)(=O)=NC(=O)Nc3c4c(cc5c3CC5)CCC4)c(F)c2)C1` (stereo not drawn) [Example 766, 2-Fluoro-4-(1-methylpiperidin-3-yl)-N′-((2,4,5,6-tetrahydro-1H-cyclobuta[f]inden-3-yl)carbamoyl)benzenesulfonimidamide], the IC50 (Table B3) lay in the range of 1000 to 5000 nM.

In the case of `CC(C)(O)c1sc(S(N)(=O)=NC(=O)Nc2c3c(cc4c2CCC4)CCC3)nc1CO` (stereo not drawn) [Example 767, N′-((1,2,3,5,6,7-hexahydro-s-indacen-4-yl)carbamoyl)-4-(hydroxymethyl)-5-(2-hydroxypropan-2-yl)thiazole-2-sulfonimidamide], the IC50 (Homo sapiens, THP-1, Table B3) fell in the range of 40 to 200 nM.

For the compound `CC1c2c(csc2S(N)(=O)=NC(=O)Nc2c3c(cc4c2CCC4)CCC3)CN1C` (stereo not drawn) [Example 768, N′-((1,2,3,5,6,7-hexahydro-s-indacen-4-yl)carbamoyl)-5,6-dimethyl-5,6-dihydro-4H-thieno[3,4-c]pyrrole-1-sulfonimidamide], where the note is “Homo sapiens, THP-1, Table B3”, the IC50 fell in the range of 200 to 1000 nM.

With `CN1CCc2sc(S(N)(=O)=NC(=O)Nc3c4c(cc5c3CC5)CCC4)c(F)c2C1` (stereo not drawn) [Example 769, 3-Fluoro-5-methyl-N′-((2,4,5,6-tetrahydro-1H-cyclobuta[f]inden-3-yl)carbamoyl)-4,5,6,7-tetrahydrothieno[3,2-c]pyridine-2-sulfonimidamide], for the setting “Homo sapiens, THP-1, Table B3”, the IC50 was 40 to 200 nM.

Consider `NS(=O)(=NC(=O)Nc1c2c(cc3c1CC3)CCC2)c1sc2c(c1F)COCC2` (stereo not drawn) [Example 770, 3-Fluoro-N′-((2,4,5,6-tetrahydro-1H-cyclobuta[f]inden-3-yl)caibamoyl)-6,7-dihydro-4H-thieno[3,2-c]pyran-2-sulfonimidamide], for which the IC50 (Homo sapiens, THP-1, Table B3) lay within 200 to 1000 nM.

On to `CC(C)(CO)c1ncc(S(N)(=O)=NC(=O)Nc2c3c(c(C#N)c4c2CCC4)CCC3)s1` (stereo not drawn) [Example 772, N′-((8-cyano-1,2,3,5,6,7-hexahydro-s-indacen-4-yl)carbamoyl)-2-(1-hydroxy-2-methylpropan-2-yl)thiazole-5-sulfonimidamide], for which the IC50 (Homo sapiens, THP-1, Table B3) lay in the range of 40 to 200 nM.

In the case of `NS(=O)(=NC(=O)Nc1c2c(cc3c1CC3)CCC2)c1cc2c(s1)CCN(CC(F)F)C2` (stereo not drawn) [Example 773, 5-(2,2-Difluoroethyl)-N′-((2,4,5,6-tetrahydro-1H-cyclobuta[f]inden-3-yl)carbamoyl)-4,5,6,7-tetrahydrothieno[3,2-c]pyridine-2-sulfonimidamide], the IC50 (Homo sapiens, THP-1, Table B3) is 1000 to 5000 nM.

Take `COC1CCc2c(csc2S(N)(=O)=NC(=O)Nc2c3c(cc4c2CCC4)CCC3)C1` (stereo not drawn) [Example 774, N′-((1,2,3,5,6,7-hexahydro-s-indacen-4-yl)carbamoyl)-5-methoxy-4,5,6,7-tetrahydrobenzo[c]thiophene-1-sulfonimidamide]: the IC50 (Homo sapiens, THP-1, Table B3) fell in the range of 1000 to 5000 nM.

For the compound `COC1CCc2csc(S(N)(=O)=NC(=O)Nc3c4c(cc5c3CCC5)CCC4)c2C1` (stereo not drawn) [Example 775, N′-((1,2,3,5,6,7-hexahydro-s-indacen-4-yl)carbamoyl)-6-methoxy-4,5,6,7-tetrahydrobenzo[c]thiophene-1-sulfonimidamide], the IC50 (Homo sapiens, THP-1, Table B3) was 1000 to 5000 nM.

Regarding `CNCc1csc(S(N)(=O)=NC(=O)Nc2c3c(cc4c2CC4)CCC3)c1F` (stereo not drawn) [Example 777, 3-Fluoro-4-((methylamino)methyl)-N′-((2,4,5,6-tetrahydro-1H-cyclobuta[f]inden-3-yl)carbamoyl)thiophene-2-sulfonimidamide], where the note is “Homo sapiens, THP-1, Table B3”, the IC50 is 40 to 200 nM.

Consider `CNC1CCc2cc(S(N)(=O)=NC(=O)Nc3c4c(cc5c3CCC5)CCC4)sc2C1` (stereo not drawn) [Example 778, N′-((1,2,3,5,6,7-hexahydro-s-indacen-4-yl)carbamoyl)-6-(methylamino)-4,5,6,7-tetrahydrobenzo[b]thiophene-2-sulfonimidamide], for which the IC50 (Homo sapiens, THP-1, Table B3) was 200 to 1000 nM.

As to `CNCc1csc(S(N)(=O)=NC(=O)Nc2c3c(cc4c2CCC4)CCC3)c1F` (stereo not drawn) [Example 779, 3-Fluoro-N′-((1,2,3,5,6,7-hexahydro-s-indacen-4-yl)carbamoyl)-4-((methylamino)methyl)thiophene-2-sulfonimidamide], the half-inhibitory concentration (IC50) (Homo sapiens, THP-1, Table B3) was in the range of 40 to 200 nM.

Consider `NS(=O)(=NC(=O)Nc1c2c(cc3c1CCC3)CCC2)c1cnc(C(O)(COCCOCc2ccccc2)COCCOCc2ccccc2)s1` (stereo not drawn) [Example 780, N′-((1,2,3,5,6,7-hexahydro-s-indacen-4-yl)carbamoyl)-2-(7-hydroxy-1,13-diphenyl-2,5,9,12-tetraoxatridecan-7-yl)thiazole-5-sulfonimidamide], for which the IC50 (Homo sapiens, THP-1, Table B3) was in the range of 1000 to 5000 nM.

Take `NS(=O)(=NC(=O)Nc1c2c(cc3c1CC3)CCC2)c1cc2c(s1)CCNC2C(F)F` (stereo not drawn) [Example 781, 4-(Difluoromethyl)-N′-((2,4,5,6-tetrahydro-1H-cyclobuta[f]inden-3-yl)carbamoyl)-4,5,6,7-tetrahydrothieno[3,2-c]pyridine-2-sulfonimidamide]: under “Homo sapiens, THP-1, Table B3”, the IC50 fell in the range of 40 to 200 nM.

For `COc1cc(-c2ccc3c(c2NC(=O)N=[S@@](N)(=O)c2cnc(C(C)(C)O)s2)CCC3)ccn1` [Example 784, (R)-2-(2-hydroxypropan-2-yl)-N′-((5-(2-methoxypyridin-4-yl)-2,3-dihydro-1H-inden-4-yl)carbamoyl)thiazole-5-sulfonimidamide], the IC50 (Homo sapiens, THP-1, Table B3) lay in the range of 8 to 40 nM.

Take `CC(NC1CCC1)c1ccc(S(N)(=O)=NC(=O)Nc2c3c(cc4c2CC4)CCC3)c(F)c1` (stereo not drawn) [Example 846, (R/S, S)-4-(1-(cyclobutylamino)ethyl)-2-fIuoro-N′-((2,4,5,6-tetrahydro-1H-cyclobuta[f]inden-3-yl)carbamoyl)benzenesulfonimidamide]: the IC50 (Table B3) is 1000 to 5000 nM.

In the case of `NS(=O)(=NC(=O)Nc1c2c(cc3c1CCC3)CCC2)c1ccc(C2CCN2)cc1` (stereo not drawn) [Example 863, (S/R, R)-4-(azetidin-2-yl)-N′-((1,2,3,5,6,7-hexahydro-s-indacen-4-yl)carbamoyl)benzenesulfonimidamide], the IC50 (Table B3) was 200 to 1000 nM.
